These are literature values, as cited in patent US10786601B2, “Composition comprising hyaluronic acid and mepivacaine” (Teoxane, priority 2013, dated 2020).

Regarding `Cc1cccc(C)c1NC(=O)C1CCCCN1C` (racemic) [mepivacaine], the pKa is given as 7,6.
